In patent publication US20100227853A1, “INHIBITORS OF CYCLIC AMP PHOSPHODIESTERASES” (Trustees of Boston College, priority 2008, published 2010):

Key:
PDE4B3 = molecular target: T1, PDE4B3 (Mus musculus, UniProt Q8VBU5); assay: 5FOA growth assay in fission yeast strain expressing PDE4B3; type: cell-based, Murine; settings: for Composite Z score, PDE4B3: high throughput 5FOA growth screen
T1 construct: targets used in the assays are full-length proteins (as opposed to simply the catalytic domain); expressed in transfected cells; host or cells: Schizosaccharomyces pombe, PDE gene integrated in place of cgs2
T1 sequence (Q8VBU5 1-721): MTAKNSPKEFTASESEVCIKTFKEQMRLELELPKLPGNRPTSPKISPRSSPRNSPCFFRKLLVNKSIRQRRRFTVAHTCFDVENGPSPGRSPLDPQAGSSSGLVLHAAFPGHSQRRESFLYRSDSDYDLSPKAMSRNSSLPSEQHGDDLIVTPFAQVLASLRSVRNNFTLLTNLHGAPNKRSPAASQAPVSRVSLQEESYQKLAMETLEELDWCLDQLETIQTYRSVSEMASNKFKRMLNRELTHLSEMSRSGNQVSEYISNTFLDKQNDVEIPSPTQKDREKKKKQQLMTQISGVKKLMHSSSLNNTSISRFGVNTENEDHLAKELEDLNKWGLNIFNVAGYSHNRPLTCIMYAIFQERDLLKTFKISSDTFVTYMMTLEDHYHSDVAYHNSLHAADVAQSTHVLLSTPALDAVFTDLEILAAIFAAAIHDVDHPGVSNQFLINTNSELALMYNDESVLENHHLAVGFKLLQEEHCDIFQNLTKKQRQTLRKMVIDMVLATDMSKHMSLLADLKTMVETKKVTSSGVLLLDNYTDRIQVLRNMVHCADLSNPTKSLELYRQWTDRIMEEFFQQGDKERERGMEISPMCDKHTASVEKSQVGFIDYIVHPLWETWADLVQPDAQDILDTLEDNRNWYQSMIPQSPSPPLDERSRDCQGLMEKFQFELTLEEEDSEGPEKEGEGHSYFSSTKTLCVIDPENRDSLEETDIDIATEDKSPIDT
Procedure, shortened: (§1)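 Fission yeast strains carrying mouse PDE4A1 or PDE4B3 and an fbp1-ura4 reporter were pregrown in EMM with 0.5–2.5 mM cAMP, then seeded at 0.5–4×10^5 cells/ml in 5FOA medium with compound. Growth was read as OD600 after 48 h at 30° C; composite Z scores were derived.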

PDE4A1 = molecular target: T2, PDE4A1 (Mus musculus, UniProt O89084); assay: 5FOA growth assay (high throughput screen, ED50) in fission yeast strain expressing PDE4A1; type: cell-based; settings: high throughput 5FOA growth screen; greater than 8.53 = statistically-significant inhibitor
T2 construct: targets used in the assays are full-length proteins (as opposed to simply the catalytic domain); expressed in transfected cells; host or cells: Schizosaccharomyces pombe, PDE gene integrated in place of cgs2
T2 sequence (O89084 1-610 isoform O89084-2): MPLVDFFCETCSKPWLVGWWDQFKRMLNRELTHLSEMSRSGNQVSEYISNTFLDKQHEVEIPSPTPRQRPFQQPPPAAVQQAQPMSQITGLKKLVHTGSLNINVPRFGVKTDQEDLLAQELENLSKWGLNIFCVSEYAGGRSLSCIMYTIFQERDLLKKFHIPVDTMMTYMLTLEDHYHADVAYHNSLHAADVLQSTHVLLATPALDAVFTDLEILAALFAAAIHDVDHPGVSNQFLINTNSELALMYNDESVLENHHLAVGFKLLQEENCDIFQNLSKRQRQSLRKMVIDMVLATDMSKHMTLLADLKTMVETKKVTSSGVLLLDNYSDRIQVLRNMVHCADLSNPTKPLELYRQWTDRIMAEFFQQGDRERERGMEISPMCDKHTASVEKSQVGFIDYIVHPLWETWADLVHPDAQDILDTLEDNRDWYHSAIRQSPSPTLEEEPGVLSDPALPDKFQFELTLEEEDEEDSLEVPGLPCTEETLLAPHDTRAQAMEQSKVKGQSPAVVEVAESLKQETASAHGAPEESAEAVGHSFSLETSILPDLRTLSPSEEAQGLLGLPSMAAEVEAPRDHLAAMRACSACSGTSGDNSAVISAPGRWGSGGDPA
Procedure, shortened: as §1

[1] = system: PDE4A, PDE4B, PDE4D, PDE7A, PDE7B, PDE8A, PDE3A; assay: Summary of PDE inhibitor profile; parameters: key to inhibitor class, Table 15: (1): Strong PDE4A5 inhibitor; (2): Strong PDE4A, 4B inhibitor; Moderate PDE4D inhibitor; (3): Strong PDE4A. 4B inhibitor; (4): Strong PDE4A, 4B, PDE7A inhibitor: Weak PDE4D inhibitor

Compound: Cc1c(C(=O)NCCC2CCCCC2)sc2ncnc(N3CCCCC3C)c12 (stereo not drawn) [Compound 2040H10]
- Composite Z score, PDE4B3 (PDE4B3): −1.056
- Composite Z score, PDE4A1 (PDE4A1): 14.925

Compound: Cc1c(C(=O)NCCC(C)C)sc2ncnc(N3CCOCC3)c12 [Compound 2040F13]
- Composite Z score, PDE4B3 (PDE4B3): 0.9277
- Composite Z score, PDE4A1 (PDE4A1): 3.5005

Compound: Cc1nc(NCCc2ccccc2)c2c3c(sc2n1)CCCC3 [Compound 2008G09]
- Composite Z score, PDE4B3 (PDE4B3): 0.0156
- Composite Z score, PDE4A1 (PDE4A1): 0.1429

Compound: CC(C)CC(Nc1ncnc2sc3c(c12)CCC3)C(=O)O (stereo not drawn) [Compound 2012H20]
- Composite Z score, PDE4B3 (PDE4B3): 0.1698
- Composite Z score, PDE4A1 (PDE4A1): 0.407

Compound: OCCNc1ncnc2sc3c(c12)CCCC3 [Compound 2051H22]
- Composite Z score, PDE4B3 (PDE4B3): 0.936
- Composite Z score, PDE4A1 (PDE4A1): 2.4965

Compound: CCOC(=O)c1sc2nc(C)nc(N3CCC(C)CC3)c2c1C [Compound 2007D06]
- Composite Z score, PDE4B3 (PDE4B3): 0.2826
- Composite Z score, PDE4A1 (PDE4A1): −0.396

Compound: COc1ccccc1CNC(=O)c1sc2ncnc(N3CCN(c4ccccc4F)CC3)c2c1C [2041 E21]
- Composite Z score, PDE4B3 (PDE4B3): −0.408
- Composite Z score, PDE4A1 (PDE4A1): 1.9156

Compound: Cc1nc(N2CCCCC2)c2c(C)c(C(=O)Nc3cccc(C(F)(F)F)c3)sc2n1 [Compound 2040F10]
- Composite Z score, PDE4B3 (PDE4B3): 16.5
- Composite Z score, PDE4A1 (PDE4A1): 11.225

Compound: COc1ccc(NC(=O)c2sc3nc(C)nc(N(C)c4ccc(C(C)C)cc4)c3c2C)c(OC)c1 [Compound 2041I04]
- Composite Z score, PDE4B3 (PDE4B3): −0.545
- Composite Z score, PDE4A1 (PDE4A1): 5.2983

Compound: CCNc1nc(SCC(=O)OCC)nc2sc3c(c12)CCC(C)C3 (stereo not drawn) [Compound 2053H16]
- Composite Z score, PDE4B3 (PDE4B3): 9.0572
- Composite Z score, PDE4A1 (PDE4A1): 3.7863

Compound: COC(=O)C1=C(C)N(c2ccc(C(C)C)cc2)C(=O)/C1=C\c1ccco1 [2008, 019]
- 1 Assay (20 uM) 4B3 (PDE4B3): −2.99 ND ND ND ND
- inhibitor class, Table 15 [1]: 2008, 019 (1)

Compound: Cc1c(C(=O)N2CCCCCC2)sc2ncnc(N3CCN(c4ccccc4)CC3)c12 [Compound 2041I21]
- Composite Z score, PDE4B3 (PDE4B3): 7.48
- Composite Z score, PDE4A1 (PDE4A1): 0.2744

Compound: CCCCN(CC)C(=O)c1sc2ncnc(N3CCN(c4ccc(OC)cc4)CC3)c2c1C [Compound 2007H06]
- Composite Z score, PDE4B3 (PDE4B3): 0.3145
- Composite Z score, PDE4A1 (PDE4A1): 0.0978

Compound: COC(=O)C1=C(C)N(c2ccccc2)/C(=C/c2cccs2)C1=O [2008, K19]
- 1 Assay (20 uM) 4B3 (PDE4B3): −0.61 ND ND ND ND
- inhibitor class, Table 15 [1]: 2008, K19 (1)

Compound: CCOC(CNc1nc(C)nc2sc3c(c12)CCCC3)OCC [Compound 2040D04]
- Composite Z score, PDE4B3 (PDE4B3): 4.66
- Composite Z score, PDE4A1 (PDE4A1): 3.1355

Compound: CCOC(=O)c1ccccc1NC(=O)c1sc2nc(C)nc(N(CC)CC)c2c1C [Compound 2040P12]
- Composite Z score, PDE4B3 (PDE4B3): 1.0041
- Composite Z score, PDE4A1 (PDE4A1): 12.157

Compound: CCOC(=O)c1sc2nc(C)nc(N(C)Cc3ccccc3)c2c1C [Compound 2007L04]
- Composite Z score, PDE4B3 (PDE4B3): 0.2682
- Composite Z score, PDE4A1 (PDE4A1): 0.6949

Compound: CCNc1nc(SCc2ccc(Cl)cc2)nc2sc3c(c12)CCN(C)C3 [Compound 2054P05]
- Composite Z score, PDE4B3 (PDE4B3): −0.211
- Composite Z score, PDE4A1 (PDE4A1): 2.3863

Compound: O=C(Nc1ncnc2sc3c(c12)CCCCC3)c1ccc(F)cc1 [Compound 2012F09]
- Composite Z score, PDE4B3 (PDE4B3): 35.319
- Composite Z score, PDE4A1 (PDE4A1): 34.225

Compound: COC(=O)C1/C(=C/c2cccc(OC)c2O)C(=O)N(c2ccccc2F)C1C (stereo not drawn) [2008, C21]
- 1 Assay (20 uM) 4B3 (PDE4B3): 24.16 ND ND ND ND
- inhibitor class, Table 15 [1]: 2008, C21 (2)

Compound: Cc1c(C(=O)Nc2ccc(F)cc2F)sc2ncnc(N(C)c3ccccc3)c12 [Compound 58-9]
- Composite Z score, PDE4B3 (PDE4B3): 78.662
- Composite Z score, PDE4A1 (PDE4A1): 25.972
